Test results published in US10093630B2, “Pyrazole compounds and methods of making and using same” (ABIDE THERAPEUTICS, INC., priority 2014, dated 2018).

Experiments:
Assay in all cases: In vitro competitive activity-based protein profiling (gel-based, FP-Rh or HT-01 probe)
Type in all cases: biochemical
ABHD6 = target: T1, ABHD6 (Mus musculus, UniProt Q8R2Y0); settings: for inhibition at 1 µM: 1 μM inhibitor, gel-based competitive ABPP, read-out: % Inhibition at 1 μM, C = ABHD6; for IC50: mouse brain membrane fraction or cell lysates, 30 min preincubation at 37° C., read-out: Mouse (IC50 value, nM) ABHD6
T1 construct: Proteomes (mouse brain membrane fraction or cell lysates); from tissue; host or cells: mouse brain membrane fraction (or cell lysates, not specified)
T1 sequence (Q8R2Y0 1-336): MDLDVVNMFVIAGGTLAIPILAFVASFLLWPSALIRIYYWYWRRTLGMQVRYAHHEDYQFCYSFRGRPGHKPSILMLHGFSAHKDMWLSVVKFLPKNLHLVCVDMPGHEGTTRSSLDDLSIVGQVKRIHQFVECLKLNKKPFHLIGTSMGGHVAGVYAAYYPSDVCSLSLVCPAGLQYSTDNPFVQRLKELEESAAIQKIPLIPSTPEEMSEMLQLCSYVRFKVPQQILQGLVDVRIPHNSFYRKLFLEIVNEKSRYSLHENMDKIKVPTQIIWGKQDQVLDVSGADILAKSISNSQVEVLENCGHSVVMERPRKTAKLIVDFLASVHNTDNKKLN
Procedure, shortened: (§1)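 Mouse brain membrane proteome or cell lysate (1.0 mg/mL protein) was preincubated with inhibitor at varying concentrations for 30 min at 37° C, then labelled with FP-Rh or HT-01 for 30 min at 37° C. After SDS-PAGE, residual hydrolase activity was quantified as in-gel fluorescence of each band.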

FAAH = target: T2, FAAH (Mus musculus, UniProt O08914); settings: for inhibition at 1 µM: 1 μM inhibitor, gel-based competitive ABPP, read-out: % Inhibition at 1 μM, B = FAAH; for IC50: mouse brain membrane fraction or cell lysates, 30 min preincubation at 37° C., read-out: Mouse (IC50 value, nM) FAAH
T2 construct: Proteomes (mouse brain membrane fraction or cell lysates); from tissue; host or cells: mouse brain membrane fraction (or cell lysates, not specified)
T2 sequence (O08914 1-579): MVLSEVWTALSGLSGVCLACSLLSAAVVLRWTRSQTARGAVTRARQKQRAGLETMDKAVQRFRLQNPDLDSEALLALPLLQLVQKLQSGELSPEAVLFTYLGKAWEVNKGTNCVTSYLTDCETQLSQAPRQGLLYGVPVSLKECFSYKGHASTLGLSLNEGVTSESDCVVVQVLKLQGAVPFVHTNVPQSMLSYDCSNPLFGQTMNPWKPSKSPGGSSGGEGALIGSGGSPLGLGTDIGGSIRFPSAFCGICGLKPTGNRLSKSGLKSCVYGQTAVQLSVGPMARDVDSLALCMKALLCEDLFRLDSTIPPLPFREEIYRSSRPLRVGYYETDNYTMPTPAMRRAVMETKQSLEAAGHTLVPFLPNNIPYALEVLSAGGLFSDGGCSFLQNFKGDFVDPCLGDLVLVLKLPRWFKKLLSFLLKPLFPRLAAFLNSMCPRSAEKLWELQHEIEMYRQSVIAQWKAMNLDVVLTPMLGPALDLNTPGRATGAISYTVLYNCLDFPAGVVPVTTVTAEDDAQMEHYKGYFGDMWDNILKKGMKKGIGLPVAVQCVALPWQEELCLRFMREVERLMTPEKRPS
Procedure, shortened: as §1

MAGL = target: T3, MAGL (Mus musculus, UniProt O35678); settings: for inhibition at 1 µM: 1 μM inhibitor, gel-based competitive ABPP; for IC50: mouse brain membrane fraction or cell lysates, 30 min preincubation at 37° C., read-out: Mouse (IC50 value, nM) MAGL
T3 construct: Proteomes (mouse brain membrane fraction or cell lysates); from tissue; host or cells: mouse brain membrane fraction (or cell lysates, not specified)
T3 sequence (O35678 1-303): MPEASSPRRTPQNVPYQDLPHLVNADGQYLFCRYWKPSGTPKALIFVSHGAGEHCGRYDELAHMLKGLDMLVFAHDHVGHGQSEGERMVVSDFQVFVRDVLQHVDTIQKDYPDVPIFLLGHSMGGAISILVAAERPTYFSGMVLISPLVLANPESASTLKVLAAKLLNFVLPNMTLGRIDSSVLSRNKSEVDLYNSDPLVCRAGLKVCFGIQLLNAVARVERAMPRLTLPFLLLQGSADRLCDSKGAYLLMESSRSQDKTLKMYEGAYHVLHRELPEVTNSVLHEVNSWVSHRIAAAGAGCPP
Procedure, shortened: as §1

PLA2G7 = target: T4, PLA2G7 (Mus musculus, UniProt Q60963); settings: for inhibition at 1 µM: 1 μM inhibitor, gel-based competitive ABPP, read-out: % Inhibition at 1 μM, D = PLA2G7; for IC50: mouse brain membrane fraction or cell lysates, 30 min preincubation at 37° C.
T4 construct: Proteomes (mouse brain membrane fraction or cell lysates); from tissue; host or cells: mouse brain membrane fraction (or cell lysates, not specified)
T4 sequence (Q60963 22-440): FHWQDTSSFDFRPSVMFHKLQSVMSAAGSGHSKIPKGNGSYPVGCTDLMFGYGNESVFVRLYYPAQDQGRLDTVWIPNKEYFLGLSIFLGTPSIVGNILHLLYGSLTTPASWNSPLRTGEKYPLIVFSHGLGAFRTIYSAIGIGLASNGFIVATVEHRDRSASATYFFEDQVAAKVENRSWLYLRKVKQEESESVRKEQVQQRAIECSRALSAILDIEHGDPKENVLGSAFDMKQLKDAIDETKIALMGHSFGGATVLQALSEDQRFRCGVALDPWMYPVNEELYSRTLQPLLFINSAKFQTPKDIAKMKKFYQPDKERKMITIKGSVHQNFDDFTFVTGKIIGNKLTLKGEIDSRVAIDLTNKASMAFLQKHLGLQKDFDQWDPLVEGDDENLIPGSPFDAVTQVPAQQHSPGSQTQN
Procedure, shortened: as §1

For `CCN(Cc1ccc(OC)cc1)C(=O)n1cc(C#N)cn1` [Example 258, 4-Cyano-N-ethyl-N-(4-methoxybenzyl)-1H-pyrazole-1-carboxamide], the inhibition at 1 µM (ABHD6) was less than 25%, the IC50 (ABHD6) was greater than 1000 nM and the inhibition at 1 µM (FAAH) was greater than 75%. For the same compound, the IC50 (FAAH) was less than 100 nM, the inhibition at 1 µM (MAGL) was greater than 75% and the IC50 (MAGL) was 100 to 1000 nM. For the same compound, the inhibition at 1 µM (PLA2G7) was less than 25% and the IC50 (PLA2G7) was greater than 1000 nM.

In the case of `CCN(Cc1ccc(OC)cc1)C(=O)n1cc(C(F)(F)F)cn1` [Example 259, N-Ethyl-N-(4-methoxybenzyl)-4-(trifluoromethyl)-1H-pyrazole-1-carboxamide], the inhibition at 1 µM (ABHD6) is reported as less than 25%, the IC50 (ABHD6) is reported as greater than 1000 nM and the inhibition at 1 µM (FAAH) is reported as greater than 75%. For the same compound, the IC50 (FAAH) was less than 100 nM, the inhibition at 1 µM (MAGL) was greater than 75% and the IC50 (MAGL) was greater than 1000 nM. It also gave an inhibition at 1 µM (PLA2G7) of less than 25% and an IC50 (PLA2G7) greater than 1000 nM.

For `CCN(Cc1ccc(OC)cc1)C(=O)n1cc(C)cn1` [Example 260, N-Ethyl-N-(4-methoxybenzyl)-4-methyl-1H-pyrazole-1-carboxamide], the inhibition at 1 µM (ABHD6) was less than 25%, the inhibition at 1 µM (FAAH) was less than 25% and the inhibition at 1 µM (MAGL) was less than 25%. The inhibition at 1 µM (PLA2G7) was less than 25%.

`CCN(Cc1cccc(N2CCOCC2)c1)C(=O)n1cc(C(F)(F)F)cn1` [Example 261, N-Ethyl-N-(3-morpholinobenzyl)-4-(trifluoromethyl)-1H-pyrazole-1-carboxamide] was tested, and the inhibition at 1 µM (ABHD6) was 25 to 75%, the IC50 (ABHD6) was greater than 1000 nM and the inhibition at 1 µM (FAAH) was greater than 75%. The IC50 (FAAH) was less than 100 nM, the inhibition at 1 µM (MAGL) was 25 to 75% and the IC50 (MAGL) was 100 to 1000 nM. It also gave an inhibition at 1 µM (PLA2G7) of less than 25% and an IC50 (PLA2G7) greater than 1000 nM.

Compound `CCN(Cc1cccc(N2CCOCC2)c1)C(=O)n1cc(C)cn1` [Example 262, N-Ethyl-4-methyl-N-(3-morpholinobenzyl)-1H-pyrazole-1-carboxamide] has an inhibition at 1 µM (ABHD6) of less than 25%, an inhibition at 1 µM (FAAH) of less than 25% and an inhibition at 1 µM (MAGL) of less than 25%. For the same compound, the inhibition at 1 µM (PLA2G7) was less than 25%.

Compound `CCN(Cc1ccc(N2CCOCC2)cc1)C(=O)n1cc(C#N)cn1` [Example 263, 4-Cyano-N-ethyl-N-(4-morpholinobenzyl)-1H-pyrazole-1-carboxamide] has an inhibition at 1 µM (ABHD6) of 25 to 75%, an IC50 (ABHD6) greater than 1000 nM and an inhibition at 1 µM (FAAH) greater than 75%. For the same compound, the IC50 (FAAH) was less than 100 nM, the inhibition at 1 µM (MAGL) was greater than 75% and the IC50 (MAGL) was 100 to 1000 nM. The inhibition at 1 µM (PLA2G7) was less than 25% and the IC50 (PLA2G7) was greater than 1000 nM.

Compound `CCN(Cc1ccc(N2CCOCC2)cc1)C(=O)n1cc(C(F)(F)F)cn1` [Example 264, N-Ethyl-N-(4-morpholinobenzyl)-4-(trifluoromethyl)-1H-pyrazole-1-carboxamide] has an inhibition at 1 µM (ABHD6) of less than 25%, an IC50 (ABHD6) greater than 1000 nM and an inhibition at 1 µM (FAAH) greater than 75%. For the same compound, the IC50 (FAAH) was less than 100 nM, the inhibition at 1 µM (MAGL) was greater than 75% and the IC50 (MAGL) was 100 to 1000 nM. It also gave an inhibition at 1 µM (PLA2G7) of less than 25% and an IC50 (PLA2G7) greater than 1000 nM.

In the case of `CCN(Cc1ccc(N2CCOCC2)cc1)C(=O)n1cc(C)cn1` [Example 265, N-Ethyl-4-methyl-N-(4-morpholinobenzyl)-1H-pyrazole-1-carboxamide], the inhibition at 1 µM (ABHD6) is reported as less than 25%, the inhibition at 1 µM (FAAH) is reported as less than 25% and the inhibition at 1 µM (MAGL) is reported as less than 25%. It also gave an inhibition at 1 µM (PLA2G7) of less than 25%.
